The results in this text go back to a melting point compilation (Tetko et al.; mined from patent text by program, amines drawn as free bases though some values may be those of a salt).

In general, melting point refers to the temperature, or range, at which the solid turns liquid. Compound `O=C1C(=c2[nH]c(=c3[nH]c(=C4C(=O)N(c5ccccc5)C(=O)N(c5ccccc5)C4=O)c4ccccc34)c3ccccc23)C(=O)N(c2ccccc2)C(=O)N1c1ccccc1` displayed a melting point of over 300 °C.

`COC(=O)c1sc(C)c2[nH]c(C(F)(F)C(F)(F)C(F)(F)F)nc12` registered a melting point of 147 to 148 °C.

In turn, `CC[C@H](N)C(=O)N1CCC[C@H]1C(=O)NCCCSC` yielded a melting point of 120 to 121 °C.

In turn, `Cc1ccc(S(=O)(=O)OC2CCN(S(=O)(=O)c3ccc(C)cc3)CC2)cc1` returned a melting point of 137 to 140 °C. As to `COC(=O)C1c2c(C)c(O)c(C)c(C)c2OC1(C)C` (stereo not drawn), the melting point fell in the range of 145 to 146 °C.

In turn, `CCN(CC)Cc1nc2cc(OC)c(OC)cc2c(-c2ccc(OC)c(OC)c2)c1C(C)O` (stereo not drawn) came in with a melting point of 144 to 145 °C. With `CN(C)CC1CCc2cc(NC(=O)c3ccc(Br)cc3)ccc2C1` (stereo not drawn), the melting point lay within 141 to 143 °C.

As for `OCCOc1ccc(-c2nc(-c3ccc(OCCO)cc3O)nc(-c3ccc(OCCO)cc3O)n2)cc1`, the melting point worked out at 169 °C. `O=C(O)c1ccc(-c2ccc3ncnc(Nc4ccc(OCc5cccc(F)c5)c(Cl)c4)c3c2)s1` came in with a melting point of 312 to 314 °C. The result for `COc1cccc2c(Nc3ccccc3C)nc(N(C)C)nc12` reads 141 to 143 °C; that for `O=C(O)c1ccc(Sc2ccc(O)cc2)cc1`, 196 to 200 °C; that for `CC(C)(Cc1ccc(F)cc1)NC(=O)Nc1ccccc1CCc1cc(C(C)(C)C)c(O)c(C(C)(C)C)c1`, 151 °C. As for `CCOC(=O)c1ccc(CBr)c(F)c1`, the figure is 42.5 to 44 °C. In turn, `O=c1oc2ccc(-c3ccc(F)cc3F)cc2c(=O)n1-c1ccc(F)c(F)c1` had a melting point of 193 to 194 °C. The result for `CC(C)c1nc(CCOC(=O)N[C@H](C(=O)N[C@@H](Cc2ccccc2)[C@@H](O)C[C@H](Cc2ccccc2)NC(=O)OCc2cncs2)C(C)C)cs1` reads 159 to 160 °C; that for `COc1ccc(C(=O)Nc2ccc(C)c(NC(=O)c3cccc(N(C)C)c3)c2)cc1OC`, 204 to 205 °C; that for `COC(=O)c1cccc2c(C(F)(F)F)c(OC)ccc12`, 79 to 80 °C. In the case of `N=C(N)c1ccc(-c2ccc(-c3ccc(C(=N)N)cn3)o2)cc1`, the melting point worked out at 232 °C. As for `C=CCn1ncc(=O)[nH]c1=O`, the figure is 133 °C; as for `COc1ncc(-c2ccc3nnn(Cc4ccc5ncccc5c4)c3n2)cn1`, 201 to 203 °C; as for `Cn1c([N+](=O)[O-])cnc1C1=NOC2CCCCC12` (stereo not drawn), 119 to 121 °C. `CC=Cc1cnn(-c2c(Cl)cc(C(F)(F)F)cc2Cl)n1` gave a melting point of 35 °C. As for `O=C1c2ccccc2-c2c1c1ccccc1c(=O)n2CCCCCCCCCCNS(=O)(=O)c1ccccc1`, the figure is 128 to 130 °C. Compound `CCN(CC)Cc1ccc(-c2ccc3c(Nc4cc(OC)c(Cl)cc4Cl)c(C#N)cnc3c2)cc1` came in with a melting point of 191 to 195 °C.

As for `O=[N+]([O-])c1ccc(F)cc1OCC(F)(F)F`, the melting point was in the range of 44 to 45 °C. Regarding `OCc1cc(-c2nnc3c4ccccc4c(OCc4ccccn4)nn23)no1`, the melting point lay in the range of 129 to 131 °C. As for `O=[N+]([O-])c1ccc2[nH]cc(C3=CCC4(CC3)OCCO4)c2c1`, the melting point lay in the range of 175 to 177 °C. On to `CCN(CC)CCNC(=O)c1cc(Cl)c(N)cc1OCCNC(C)=O`, for which the melting point was 143 to 145 °C.

Take `CC(=O)N1CC(C)(C)CN=C1N(N=CC(C=Cc1ccc(C(F)(F)F)cc1)=Cc1ccc(C(F)(F)F)cc1)C(C)=O`: the melting point lay within 70 to 72 °C.

Turning to `CCCCCC(=O)NC(C(C)=O)c1ccccc1` (stereo not drawn), the melting point is 77 to 78 °C. `COc1cc2c(cc1OC)CN(CCCOc1ccc([N+](=O)[O-])cc1)CC2` yielded a melting point of 100 °C. The result for `Cc1ccccc1C=C1CCc2c1oc1ccc(C(=O)O)cc1c2=O` reads over 300 °C; that for `CCOC(=O)Cc1sc(Sc2cc(C(=O)OCC)nc(SC)n2)nc1C`, 69 to 71 °C.

The compound `CC(C)(C)OC(=O)Cn1c(-c2ccccn2)nc2cccnc21` yielded a melting point of 124 to 126 °C. The result for `Oc1ccc(NC2Cc3ccccc3C2)cc1` reads 165 to 167 °C; that for `NS(=O)(=O)c1cnc(C2CC2=O)s1` (stereo not drawn), 148 to 149 °C; that for `CCCCc1nn(-c2ccc(C(F)(F)F)cn2)cc1CCCOc1c(CC(=O)O)cccc1OC`, 121 to 122 °C. As for `Cc1ccc(NC(=O)NCc2cccc3c2CN(C2CCC(=O)NC2=O)C3=O)cc1C` (stereo not drawn), the figure is over 260 °C; as for `Fc1ccc(-c2ccn(C3CC4CCC(C3)N4)c2-c2ccncc2)cc1` (stereo not drawn), 204 to 205 °C. `CCOC(=O)c1nc(-c2ccc(=O)[nH]c2)c(-c2ccccc2)nc1N` gave a melting point of 230 to 238 °C.

Turning to `CC(=O)NC[C@H]1CN(c2ccc(N3CCC(F)(COS(C)(=O)=O)CC3)c(F)c2)C(=O)O1`, the melting point was in the range of 182 to 183 °C. On to `CCOC(=O)C1(c2ccccc2)CCN(C2=CCC(C#N)(c3ccccn3)CC2)CC1` (stereo not drawn), for which the melting point was 160 °C. `CC(C)CCCNC1c2ccccc2C(=O)N1c1ccc2ccc(Cl)nc2n1` (stereo not drawn) registered a melting point of 131 °C. As to `Cc1ccc(S(=O)(=O)NC2CCCC2NC(=O)OC(C)(C)C)cc1` (stereo not drawn), the melting point lay within 129 to 130 °C. The result for `CCc1nc2cc(Cl)c(Cl)nc2n1-c1ccc(CCNC(=O)NS(=O)(=O)c2ccc(C)cc2)cc1` reads 188 to 189 °C; that for `COc1ccc(-c2ccc(C=CC(=O)O)s2)cc1C(C)(C)C`, 218 to 219 °C.

The compound `Cc1ccc(CC2(O)CCN(CC3=Cc4ccc(O)cc4C3)CC2)cc1` came in with a melting point of 154 to 157 °C.

On to `CC1(C)CCC(C)(C)c2cc(-c3c[nH]c(C=O)c3)ccc21`, for which the melting point fell in the range of 211 to 212 °C. In turn, `CC1(C)CC1(N)C(=O)OCC(CO)OCn1cnc2c(=O)[nH]c(N)nc21` (stereo not drawn) registered a melting point of over 300 °C. The result for `COC(=O)C1=C(O)CCc2c(OC)cccc21` reads 55 to 58 °C; that for `Cc1cc(C#C[Si](C(C)C)(C(C)C)C(C)C)n(-c2ccc([N+](=O)[O-])cc2)n1`, 71 to 73 °C.

With `CC(C)(COS(N)(=O)=O)Oc1ccc(Cl)cc1`, the melting point lay in the range of 76 to 79 °C. The compound `COc1ccc(-c2nnn(-c3ccc(C(F)(F)F)cc3Cl)c2CBr)cc1` yielded a melting point of 152 to 154 °C. On to `C=CC(=O)NCc1ccc(Cl)cc1`, for which the melting point lay within 103 to 104 °C. The result for `NS(=O)(=O)c1ccc(-n2nc(C(F)F)cc2-c2ccc(Cl)cc2)cc1` reads 185 to 186 °C. In turn, `CCOC(=O)c1cc2ccc(Cl)nc2[nH]1` showed a melting point of 144 to 145 °C. Turning to `O=C(Cc1ccc(O)cc1)c1c(O)cc(O)cc1O`, the melting point came out at 259 °C. The compound `CC(C)(C)OC(=O)NCc1cc(C(C)(C)C)cc(Cl)c1O` came in with a melting point of 161 to 163 °C. As for `COc1cc(OC)cc(-c2ncoc2-c2ccc(N)cc2)c1`, the figure is 142 to 146 °C; as for `CC(C)(C)OC(=O)N[C@@H](CC(=O)OCc1ccccc1)C(=O)NCCc1ccc(OCC(=O)OCc2ccccc2)cc1`, 178 to 180 °C. Compound `CCCc1nn(CC)c2c(=O)[nH]c(-c3ccccc3OCC)nc12` displayed a melting point of 114 to 115 °C. The result for `Cc1ccc(CC2(O)CCNCC2)cc1` reads 118 to 121 °C; that for `Cc1cn(C(c2ccccc2)c2ccc(Cl)c([N+](=O)[O-])c2)cn1` (stereo not drawn), 105 °C.

As for `COC(=O)c1cc(CI)on1`, the melting point is 91 to 95 °C. Take `O=C1N(c2ccccc2Br)Cc2cnc(Nc3ccccc3)nc2N1c1cccc2ccccc12`: the melting point is 120 to 125 °C. `NC(=O)[C@H](O)[C@@H](O)[C@H](O)[C@H](O)CO`: the melting point was 109 to 111 °C. For `COc1c(O)ccc2oc(-c3ccc(O)cc3)cc12`, the melting point lay in the range of 165 to 168 °C. Take `CN(CCCCCCCNC(=NCCSCc1csc(NC(=N)N)n1)NC#N)CCN(Cc1ccc(F)cc1)c1ccccn1`: the melting point was 118 °C. Take `O[C@@H](CNCCOc1ccc2oc(-c3ccon3)cc2c1)COc1ccccc1F`: the melting point lay within 109 to 110 °C. With `N#Cc1cnc2sc(I)cc2c1Nc1cccc2cc[nH]c12`, the melting point is over 245 °C. Compound `CN(C)CCSc1sc(-c2cc[nH]n2)c2c1C(=O)CC(C)(C)C2` gave a melting point of 212 to 214 °C.

Compound `COc1cccc2c1cc(C(=O)O)n2CC(=O)OC(C)(C)C` displayed a melting point of 222 to 224 °C. `O=C(O)C1=C(c2ccccc2)c2ccccc2CS1`: the melting point lay in the range of 155 to 156 °C. `COc1cc(O)cc(C)c1C=CC(=O)c1ccc(O)cc1` gave a melting point of 197 to 198 °C. `CC(C)(C)OC(=O)[C@@H]1CC[C@H](c2ccccc2)N1C(=O)CNC(=O)Nc1cccc(CC(=O)O)c1` registered a melting point of 112 °C. With `Oc1ccc(-c2n[nH]c3ccccc23)cc1`, the melting point is 189 to 190 °C. For the compound `N=C(N)NC(=O)OCc1ccccc1`, the melting point is 120 to 122 °C. Compound `O=C(c1cc(Cl)ccc1Cl)N1CCNC1=Nc1ccc(Cl)cc1Cl` registered a melting point of 205 to 206 °C. Compound `CCn1cc(C(=O)O)c(=O)c2c(C)c(F)c(F)c(F)c21` gave a melting point of 203 to 204 °C. On to `O=C(O)C1=Cc2cc(SC(F)(F)F)ccc2SC1C(F)(F)F` (stereo not drawn), for which the melting point lay in the range of 129 to 132 °C. Compound `CCOCn1c(Oc2ccccc2)c(CC)c(=O)[nH]c1=O` had a melting point of 130 to 131 °C.

Compound `C=CCn1cc(Cc2ccc(C(=O)O)cc2OC)c2cc(CC(=O)NCCCC)ccc21` registered a melting point of 78 to 80 °C. Turning to `CC(C)n1nc(-c2sc(C(=O)NN(C)C)nc2-c2ccc(F)cc2)ccc1=O`, the melting point lay within 169 to 170 °C. As for `COc1c(F)c(F)c([N+](=O)[O-])c2c(=O)c(C(=O)O)cn(C3CC3)c12`, the figure is 216 to 221 °C; as for `N#CCCN1c2ccccc2Sc2ccccc21`, 158 to 160 °C; as for `CC1Cc2ccccc2CN(CCC(N)=O)C1=O` (stereo not drawn), 168 to 169 °C. `CC(C)CCC(=O)NC[C@H](O)[C@H](O)[C@H](CC1CCCCC1)NC(=O)OC(C)(C)C` returned a melting point of 179 to 183 °C.

As to `O=C1COC2CCCc3nc4ccccc4c(c32)N1` (stereo not drawn), the melting point fell in the range of 173 to 175 °C.
